The record followed here is US8940896B2, “Tetra-cyclic carboline derivatives useful in the inhibition of angiogenesis” (PTC Therapeutics, Inc., priority 2004, dated 2015).

The structures appear in SMILES notation. Bounds are passed on as bounds.

The assay concerns VEGF. Put plainly: Hypoxia-inducible endogenous VEGF expression, VEGF ELISA assay. The format is cell-based. The following applies: HeLa cells, hypoxic conditions (1% O2, 5% CO2), VEGF in conditioned media. As to the method:
The ability of the compounds of the invention to modulate hypoxia-inducible endogenous VEGF expression may be analyzed as follows. VEGF protein levels may be monitored by an ELISA assay (R&D Systems). Briefly, HeLa cells may be cultured for 24-48 hours under hypoxic conditions (1% O2, 5% CO2, balanced with nitrogen) in the presence or absence of a compound of the invention. The conditioned media may then be assayed by ELISA, and the concentration of VEGF calculated from the standard ELISA curve of each assay.
A dose-response analysis may be performed using the ELISA assay and conditions described above. The conditions for the dose-response ELISA are analogous to those described above. A series of, e.g., seven different concentrations may be analyzed. In parallel, a dose-response cytotoxicity assay may be performed using CellTiter Glo (Promega) under the same conditions as the ELISA to ensure that the inhibition of VEGF expression was not due to the cytotoxicity. Dose-response curves may be plotted using percentage inhibition versus concentration of the compound, and EC50 and CC50 values may be generated for each compound with the maximal inhibition set as 100% and the minimal inhibition as 0%.

As for `COc1cccc(C2c3[nH]c4ccccc4c3CC3C(=O)N(C4CCCCC4)C(=S)N32)c1` (racemic) [Compound 2], the EC50 (in general, the concentration that produces a half-maximal response) (Homo sapiens, HeLa) was over 1 µM.
Consider `O=C1C2Cc3c([nH]c4ccccc34)C(C3CCCCC3)N2C(=S)N1C1CCCCC1` (centres unmarked) [Compound 1], for which the EC50 is over 1 µM.
Regarding `O=C1C2Cc3c([nH]c4ccccc34)C(c3ccc4c(c3)OCO4)N2C(=S)N1C1CCCCC1` (centres unmarked) [Compound 3], the EC50 (Homo sapiens, HeLa) was over 1 µM.
The same measure, in the same setting: the same measure for `O=C1C2Cc3c([nH]c4ccccc34)C(c3ccc(F)cc3)N2C(=S)N1C1CCCCC1` (centres unmarked) [Compound 4]: over 1 µM.
Compound `O=C1C2Cc3c([nH]c4ccccc34)C(C3CCCCC3)N2C(=S)N1C1CC1` (centres unmarked) [Compound 5] registered an EC50 of over 1 µM.
In the case of `COc1cccc(C2c3[nH]c4ccccc4c3CC3C(=O)N(C4CC4)C(=S)N32)c1` (centres unmarked) [Compound 6], the EC50 (Homo sapiens, HeLa) was over 1 µM.
As to `O=C1C2Cc3c([nH]c4ccc(Br)cc34)C(c3ccc4c(c3)OCO4)N2C(=S)N1C1CCCCC1` (centres unmarked) [Compound 9], the EC50 was 0.008 to 0.04 µM.
`O=C1C2Cc3c([nH]c4ccc(Br)cc34)C(c3ccc(F)cc3)N2C(=S)N1C1CCCCC1` (centres unmarked) [Compound 10] came in with an EC50 (Homo sapiens, HeLa) of 0.008 to 0.04 µM.
Still for that read-out and setting: under `O=C1C2Cc3c([nH]c4ccccc34)C(C3CCCCC3)N2C(=S)N1C1CCCC1` (centres unmarked) [Compound 11] stands 0.2 to 1 µM; under `COc1cccc(C2c3[nH]c4ccccc4c3CC3C(=O)N(C4CCCC4)C(=S)N32)c1` (centres unmarked) [Compound 12], over 1 µM; under `COc1ccc(C2c3[nH]c4ccccc4c3CC3C(=O)N(C4CCCC4)C(=S)N32)cc1` (centres unmarked) [Compound 13], 0.04 to 0.2 µM.
On the same count and under the same terms, under `O=C1C2Cc3c([nH]c4ccccc34)C(c3ccc4c(c3)OCO4)N2C(=S)N1C1CCCC1` (centres unmarked) [Compound 14] stands 0.2 to 1 µM; under `O=C1C2Cc3c([nH]c4ccc(Br)cc34)C(C3CCCCC3)N2C(=S)N1C1CC1` (centres unmarked) [Compound 15], 0.2 to 1 µM.
For the compound `COc1cccc(C2c3[nH]c4ccc(Br)cc4c3CC3C(=O)N(C4CC4)C(=S)N32)c1` (centres unmarked) [Compound 16], the EC50 was under 0.008 µM.
Regarding `COc1ccc(C2c3[nH]c4ccc(Br)cc4c3CC3C(=O)N(C4CC4)C(=S)N32)cc1` (centres unmarked) [Compound 17], where the note is “Homo sapiens, HeLa”, the EC50 was under 0.008 µM.
Still for that read-out and setting: the same measure for `O=C1C2Cc3c([nH]c4ccc(Br)cc34)C(c3ccc4c(c3)OCO4)N2C(=S)N1C1CC1` (centres unmarked) [Compound 18]: under 0.008 µM; for `O=C1C2Cc3c([nH]c4ccc(Br)cc34)C(C3CCCCC3)N2C(=S)N1C1CCCC1` (centres unmarked) [Compound 19]: 0.008 to 0.04 µM; for `COc1cccc(C2c3[nH]c4ccc(Br)cc4c3CC3C(=O)N(C4CCCC4)C(=S)N32)c1` (centres unmarked) [Compound 20]: under 0.008 µM.
The same measure, in the same setting: the same measure for `COc1ccc(C2c3[nH]c4ccc(Br)cc4c3CC3C(=O)N(C4CCCC4)C(=S)N32)cc1` (centres unmarked) [Compound 21]: under 0.008 µM; for `O=C1C2Cc3c([nH]c4ccc(Br)cc34)C(c3ccc4c(c3)OCO4)N2C(=S)N1C1CCCC1` (centres unmarked) [Compound 22]: under 0.008 µM.
On the same count and under the same terms, the same measure for `COc1ccc(C2c3[nH]c4ccc(C)cc4c3CC3C(=O)N(C4CCCCC4)C(=S)N32)cc1` (centres unmarked) [Compound 23]: 0.008 to 0.04 µM.
Compound `COc1ccc(C2c3[nH]c4ccc(OC)cc4c3CC3C(=O)N(C4CCCCC4)C(=O)N32)cc1` (centres unmarked) [Compound 24] showed an EC50 (Homo sapiens, HeLa) of 0.04 to 0.2 µM.
Under “Homo sapiens, HeLa”, `O=C1C2Cc3c([nH]c4ccc(Cl)cc34)C(c3ccc4c(c3)OCO4)N2C(=S)N1C1CCCCC1` (centres unmarked) [Compound 25] returned an EC50 of under 0.008 µM.
Consider `O=C1C2Cc3c([nH]c4ccc(Br)cc34)C(c3ccc(OCCN4CCCCC4)cc3)N2C(=S)N1C1CCCCC1` (centres unmarked) [Compound 26], for which the EC50 (Homo sapiens, HeLa) was in the range of 0.04 to 0.2 µM.
`COc1ccc(C2c3[nH]c4ccc(Br)cc4c3CC3C(=O)N(C4CCCCC4)C(=S)N32)cc1` (centres unmarked) [Compound 27] gave an EC50 of under 0.008 µM.
Turning to `COc1cccc(C2c3[nH]c4ccc(Br)cc4c3CC3C(=O)N(C4CCCCC4)C(=S)N32)c1` (centres unmarked) [Compound 28], the EC50 (Homo sapiens, HeLa) is 0.008 to 0.04 µM.
On the same count and under the same terms, the same measure for `O=C1C2Cc3c([nH]c4ccc(Br)cc34)C(c3ccc4c(c3)OCO4)N2C(=O)N1C1CCCCC1` (centres unmarked) [Compound 29]: 0.008 to 0.04 µM.
The same measure, in the same setting: under `O=C1C2Cc3c([nH]c4ccc(Br)cc34)C(C3CCCCC3)N2C(=S)N1C1CCCCC1` (centres unmarked) [Compound 30] stands 0.04 to 0.2 µM.
Same read-out and setting: under `O=C1C2Cc3c([nH]c4ccc(Cl)cc34)C(c3ccc4c(c3)OCO4)N2C(=O)N1C1CCCCC1` (centres unmarked) [Compound 31] stands 0.04 to 0.2 µM; under `CCN1C(=O)C2Cc3c([nH]c4ccc(C)cc34)C(c3ccc(OC)cc3)N2C1=O` (centres unmarked) [Compound 33], 0.04 to 0.2 µM; under `Cc1ccc(N2C(=O)C3Cc4c([nH]c5ccccc45)C(c4cccc(Cl)c4)N3C2=S)cc1` (centres unmarked) [Compound 34], 0.2 to 1 µM.
For `COc1ccc(C2c3[nH]c4ccccc4c3CC3C(=O)N(c4ccc(C(C)C)cc4)C(=O)N32)cc1` (centres unmarked) [Compound 35], the EC50 (Homo sapiens, HeLa) is 0.2 to 1 µM.
Still for that read-out and setting: under `O=C1C2Cc3c([nH]c4ccccc34)C(c3cccc(Cl)c3)N2C(=S)N1C1CCCCC1` (centres unmarked) [Compound 36] stands over 1 µM; under `Cc1ccccc1N1C(=O)C2Cc3c([nH]c4ccccc34)C(c3cccc(Cl)c3)N2C1=S` (centres unmarked) [Compound 37], over 1 µM; under `O=C1C2Cc3c([nH]c4ccccc34)C(c3cccc(Cl)c3)N2C(=S)N1CCc1ccccc1` (centres unmarked) [Compound 38], over 1 µM.
Same read-out and setting: under `O=C1C2Cc3c([nH]c4ccccc34)C(c3cccc(Cl)c3)N2C(=S)N1c1cccc(F)c1` (centres unmarked) [Compound 39] stands 0.2 to 1 µM.
`COc1ccc(C2c3[nH]c4ccccc4c3CC3C(=O)N(C4CCCCC4)C(=S)N32)cc1` (centres unmarked) [Compound 40] gave an EC50 (Homo sapiens, HeLa) of 0.2 to 1 µM.
`COc1ccc(C2c3[nH]c4ccccc4c3CC3C(=O)N(C4CCCCC4)C(=S)N32)cc1` (centres unmarked) [Compound 41] returned an EC50 of 0.2 to 1 µM.
In the case of `COc1ccc(C2c3[nH]c4ccccc4c3CC3C(=O)N(C(C)C)C(=S)N32)cc1` (centres unmarked) [Compound 42], the EC50 (Homo sapiens, HeLa) was 0.2 to 1 µM.
On the same count and under the same terms, under `COc1ccc(C2c3[nH]c4ccccc4c3CC3C(=O)N(c4cccc(F)c4)C(=S)N32)cc1` (centres unmarked) [Compound 43] stands 0.2 to 1 µM.
The same measure, in the same setting: under `Cc1ccc2[nH]c3c(c2c1)CC1C(=O)N(C2CCCCC2)C(=O)N1C3c1ccc2c(c1)OCO2` (centres unmarked) [Compound 44] stands 0.2 to 1 µM; under `COc1ccc(C2c3[nH]c4ccc(C)cc4c3CC3C(=O)N(C4CCCCC4)C(=O)N32)cc1` (centres unmarked) [Compound 45], 0.2 to 1 µM; under `COc1ccc(C2c3[nH]c4ccccc4c3CC3C(=O)N(c4ccc(C)cc4)C(=S)N32)cc1` (centres unmarked) [Compound 46], over 1 µM.
Still for that read-out and setting: the same measure for `COc1ccc(C2c3[nH]c4ccccc4c3CC3C(=O)N(C4CCCCC4)C(=O)N32)cc1` (centres unmarked) [Compound 48]: over 1 µM; for `COc1ccc(C2c3[nH]c4ccccc4c3CC3C(=O)N(c4ccccc4)C(=O)N32)cc1` (centres unmarked) [Compound 50]: over 1 µM.
`COC(=O)c1cccc(N2C(=O)C3Cc4c([nH]c5ccccc45)C(c4ccc(OC)cc4)N3C2=S)c1` (centres unmarked) [Compound 51]: the EC50 (Homo sapiens, HeLa) is over 1 µM.
On the same count and under the same terms, the same measure for `CN1C(=O)C2Cc3c([nH]c4ccccc34)C(c3ccc(Cl)c(Cl)c3)N2C1=S` (centres unmarked) [Compound 53]: over 1 µM.
In turn, `COc1ccc(C2c3[nH]c4ccccc4c3CC3C(=O)N(C4CCCCC4)C(=O)N32)cc1` (centres unmarked) [Compound 54] returned an EC50 of over 1 µM.
In turn, `CCN1C(=O)C2Cc3c([nH]c4ccc(Br)cc34)C(c3ccc(OC)cc3)N2C1=O` (centres unmarked) [Compound 55] had an EC50 (Homo sapiens, HeLa) of over 1 µM.
Turning to `O=C1C2Cc3c([nH]c4ccccc34)C(c3ccccc3)N2C(=S)N1C1CCCCC1` (centres unmarked) [Compound 56], the EC50 (Homo sapiens, HeLa) is over 1 µM.
On the same count and under the same terms, the same measure for `COc1cccc(C2c3[nH]c4ccccc4c3CC3C(=O)N(c4ccccc4)C(=S)N32)c1` (centres unmarked) [Compound 57]: over 1 µM; for `CN1C(=O)C2Cc3c([nH]c4ccccc34)C(c3cccc(Cl)c3)N2C1=S` (centres unmarked) [Compound 58]: over 1 µM.
The same measure, in the same setting: under `COCCN1C(=O)C2Cc3c([nH]c4ccccc34)C(c3ccc(OC)cc3)N2C1=S` (centres unmarked) [Compound 59] stands over 1 µM.
Compound `COCCCN1C(=O)C2Cc3c([nH]c4ccccc34)C(c3ccc(OC)cc3)N2C1=S` (centres unmarked) [Compound 62] registered an EC50 (Homo sapiens, HeLa) of over 1 µM.
The same measure, in the same setting: the same measure for `CN1C(=O)C2Cc3c([nH]c4ccccc34)C(c3ccc(F)cc3)N2C1=S` (centres unmarked) [Compound 63]: over 1 µM.
Consider `CCN1C(=O)C2Cc3c([nH]c4ccccc34)C(c3cc(OC)c(OC)c(OC)c3)N2C1=S` (centres unmarked) [Compound 64], for which the EC50 (Homo sapiens, HeLa) was over 1 µM.
On the same count and under the same terms, the same measure for `CN1C(=O)C2Cc3c([nH]c4ccccc34)C(c3cccc(F)c3)N2C1=S` (centres unmarked) [Compound 65]: over 1 µM; for `CCN1C(=O)C2Cc3c([nH]c4ccccc34)C(c3ccc(OC)cc3)N2C1=O` (centres unmarked) [Compound 66]: over 1 µM.
Same read-out and setting: the same measure for `C=CCN1C(=O)C2Cc3c([nH]c4ccccc34)C(c3cccc(Cl)c3)N2C1=S` (centres unmarked) [Compound 67]: over 1 µM; for `CC(C)N1C(=O)C2Cc3c([nH]c4ccccc34)C(c3cccc(Cl)c3)N2C1=S` (centres unmarked) [Compound 68]: over 1 µM.
Still for that read-out and setting: under `COc1ccc(C2c3[nH]c4ccccc4c3CC3C(=O)N(C(C)(C)C)C(=S)N32)cc1` (centres unmarked) [Compound 70] stands over 1 µM; under `COc1cc(C2c3[nH]c4ccccc4c3CC3C(=O)N(C)C(=S)N32)cc(OC)c1O` (centres unmarked) [Compound 71], over 1 µM; under `O=C1C2Cc3c([nH]c4ccccc34)C(c3ccccc3)N2C(=O)N1C1CCCCC1` (centres unmarked) [Compound 72], over 1 µM.
Consider `COc1ccc(C2c3[nH]c4ccccc4c3CC3C(=O)N(C)C(=S)N32)c(OC)c1OC` (centres unmarked) [Compound 73], for which the EC50 (Homo sapiens, HeLa) was over 1 µM.
On the same count and under the same terms, under `COc1ccc(C2c3[nH]c4ccccc4c3CC3C(=O)N(c4ccccc4C(C)C)C(=S)N32)cc1` (centres unmarked) [Compound 74] stands over 1 µM.
